Results on three compounds are retold here after patent US10259779B2 (WAYNE STATE UNIVERSITY, priority 2016, dated 2019).

In series [1] the test system is acetyl-α-tubulin (HDAC6 substrate) in U937 cells. Description: In cellulo selectivity testing, western blot of acetyl-α-tubulin. Particulars: 18 hours, SAHA 5 μM, 1f 20-60 μM, compared to DMSO control. Format: cell-based.
For series [2], the system named is U937 cells. Nature of the series: In vitro cell growth inhibition, MTT assay, U937. Format: cell-based. Conditions: Homo sapiens, U-937, U937 cell line.
The nature of series [3]: in vitro. Conditions: human, Jurkat cells (leukemia cell line).
The target in series [4] is T1, HDAC6 (Homo sapiens, UniProt Q9UBN7).
T1 sequence (Q9UBN7 1-1215): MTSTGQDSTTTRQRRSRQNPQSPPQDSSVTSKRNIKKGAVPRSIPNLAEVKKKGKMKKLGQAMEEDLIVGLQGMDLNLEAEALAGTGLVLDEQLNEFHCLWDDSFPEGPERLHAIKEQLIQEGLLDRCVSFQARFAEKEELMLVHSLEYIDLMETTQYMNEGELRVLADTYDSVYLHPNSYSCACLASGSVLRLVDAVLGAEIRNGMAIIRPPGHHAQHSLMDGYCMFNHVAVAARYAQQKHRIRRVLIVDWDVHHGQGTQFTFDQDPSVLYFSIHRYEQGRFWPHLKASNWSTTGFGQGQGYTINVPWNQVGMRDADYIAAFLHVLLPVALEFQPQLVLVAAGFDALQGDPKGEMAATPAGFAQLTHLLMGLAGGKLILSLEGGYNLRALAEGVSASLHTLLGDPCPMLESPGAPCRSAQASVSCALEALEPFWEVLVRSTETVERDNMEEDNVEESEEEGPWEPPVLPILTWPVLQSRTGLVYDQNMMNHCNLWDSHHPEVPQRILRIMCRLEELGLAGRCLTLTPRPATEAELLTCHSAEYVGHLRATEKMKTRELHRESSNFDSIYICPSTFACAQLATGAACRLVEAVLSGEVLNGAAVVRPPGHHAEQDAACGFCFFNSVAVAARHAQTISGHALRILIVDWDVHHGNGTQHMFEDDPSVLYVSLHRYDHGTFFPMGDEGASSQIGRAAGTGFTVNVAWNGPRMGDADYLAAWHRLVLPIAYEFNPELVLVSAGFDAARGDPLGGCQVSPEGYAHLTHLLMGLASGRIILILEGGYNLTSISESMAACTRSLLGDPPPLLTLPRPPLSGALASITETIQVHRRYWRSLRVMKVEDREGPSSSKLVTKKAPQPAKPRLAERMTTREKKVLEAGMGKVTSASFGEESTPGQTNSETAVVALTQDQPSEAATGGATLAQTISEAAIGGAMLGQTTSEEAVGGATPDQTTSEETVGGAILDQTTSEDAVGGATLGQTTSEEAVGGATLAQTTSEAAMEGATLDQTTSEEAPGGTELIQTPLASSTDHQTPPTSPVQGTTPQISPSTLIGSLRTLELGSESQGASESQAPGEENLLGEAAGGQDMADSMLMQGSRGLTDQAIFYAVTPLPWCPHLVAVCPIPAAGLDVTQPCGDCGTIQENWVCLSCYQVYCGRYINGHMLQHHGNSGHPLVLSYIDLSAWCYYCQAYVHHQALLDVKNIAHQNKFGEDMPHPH
Description: ELISA-based HDAC activity assay, HDAC6. Particulars: for HDAC6 fold selectivity HDAC1: HDAC6 over HDAC1; for HDAC6 fold selectivity HDAC1 / HDAC6 fold selectivity HDAC2 / HDAC6 fold selectivity HDAC3: calculated from IC50 values; for HDAC6 fold selectivity HDAC2: HDAC6 over HDAC2; for HDAC6 fold selectivity HDAC3: HDAC6 over HDAC3.

The mark [5] stands for this setting: read-out: Deacetylase activity (%) HDAC6.

Molecules are shown by their SMILES.

The term EC50 denotes the concentration needed to bring the measured effect to its halfway point. Read a high EC50 as a less potent agent. A word on the viability: it is a per cent measure of how many cells are alive, often set against a control. Low readings indicate a greater loss of cells, high ones better survival. The term IC50 denotes the concentration that inhibits the measured activity by half. Higher therefore signals lower potency. In the case of `O=C(CCC(CCCC(=O)Nc1ccccc1)Cc1ccccc1)NO` (racemic) [Compound 1f, 4-benzyl-N^1-hydroxy-N^8-phenyloctanediamide], the “levels of acetyl-α-tubulin (AcTub), western blot” value in series [1] is listed as “dose-dependent increase”. Besides, the EC50 in series [2] worked out at 28000 nM. In series [3], the viability at 44 h, 1 µM was 89 ± 20% and the viability at 44 h, 10 µM was found to be 97 ± 4%. Moreover, in series [4], the concentration for half-maximal inhibition (IC50) worked out at 140 nM, the “HDAC6 fold selectivity HDAC1” value was 210 fold, the “HDAC6 fold selectivity HDAC2” value is listed as 270 fold and the “HDAC6 fold selectivity HDAC3” value is 300 fold. For the same compound, in series [4] (setting [5]), the activity at 0.05 µM stood at 76 ± 5%, the activity at 0.1 µM came to 60 ± 4%, the activity at 0.2 µM came out at 45 ± 5% and the activity at 0.4 µM was found to be 18 ± 4%. In series [4] (setting [5]), the activity at 5 µM worked out at 2.9 ± 0.5% and the activity at […] is 90 ± 7%.
In the case of `CCC(CCCC(=O)Nc1ccccc1)CCC(=O)NO` (racemic) [Compound 1b, 4-ethyl-N^1-hydroxy-N^8-phenyloctanediamide], in series [4], inhibition was half-maximal at 160 ± 10 nM (IC50), the “HDAC6 fold selectivity HDAC1” value was 28 fold, the “HDAC6 fold selectivity HDAC2” value was 31 fold and the “HDAC6 fold selectivity HDAC3” value is 38 fold. For the same compound, in series [4] (setting [5]), the activity at 0.05 µM came to 74 ± 7%, the activity at 0.1 µM is 61 ± 6%, the activity at 0.2 µM stood at 43 ± 5% and the activity at 0.4 µM was 33 ± 3%. Moreover, the activity at […] in series [4] (setting [5]) came out at 80 ± 8%.
In series [2], `CCCCCCC(CCCC(=O)Nc1ccccc1)CCC(=O)NO` (racemic) [Compound 1d, 4-hexyl-N^1-hydroxy-N^8-phenyloctanediamide] gave a half-maximal effective concentration (EC50) of 16000 nM. For the same compound, in series [3], the viability at 44 h, 1 µM was 69 ± 4% and the viability at 44 h, 10 µM worked out at 39 ± 6%. Besides, in series [4], the half-inhibitory concentration (IC50) was 140 ± 10 nM, the “HDAC6 fold selectivity HDAC1” value was 250 fold, the “HDAC6 fold selectivity HDAC2” value is reported as 270 fold and the “HDAC6 fold selectivity HDAC3” value is 210 fold. Also, in series [4] (setting [5]), the activity at 0.05 µM came out at 75 ± 6%, the activity at 0.1 µM worked out at 56 ± 4%, the activity at 0.2 µM turned out to be 42 ± 4% and the activity at 0.4 µM worked out at 27 ± 2%. In series [4] (setting [5]), the activity at 1.25 µM is 21 ± 2% and the activity at […] is 77 ± 9%.
